# Tested on: hES cells (SA121) in mTeSR culture system
# Assay: Immunostainings and OCT4/SOX17+ cell quantification in the mTeSR system
# Type: cell-based, human
# Details: Chir 7 μM or D'Amour
# Protocol: hES cells (SA121) were cluster passaged from feeders (MEFs) to Matrigel (BD Biosciences) in mTeSR1 media ([…]) and passaged further with Dispase (BD Biosciences) according to the culture system protocol. DE was initiated once clusters started to touch each other Confluent cultures were washed once in RPMI1640 (Invitrogen) before 24 hour pre-treatment with 0,5-7μM CHIR99021 (Stemgent) in RPMI. Control cells were left untreated in RPMI and D'Amour cells were either left in RPMI or treated with AA (Peprotech)+Wnt3a (R&D Systems) without pre-treatment depending on experimental setup. After 24 hours, pretreated and control cells were washed once with RPMI before adding 100 ng/ml AA in RPMI. D'Amour cells were also treated with 100 ng/ml AA but with 0,2% FBS instead of B27. 24 h later, 2% B27 (Invitrogen) was added to the AA media for 2-3 d. Control cells were treated with B27 to prevent cell death and D'Amour cells with 2% FBS according to published protocol. Media was changed every day. Cells were washed in PBS+/+ and fixed in 4% formaldehyde for 30 min (10% formaline, VWR). The cells were then washed again three times in PBS and left in PBS (4° C.) until staining. Fixed cells were washed with PBS once, then permeabilized with 0.5% Triton X-100 in PBS for 6 min, washed in PBS and blocked with TNB buffer (0.1 M Tris-HCL pH 7.5, 0.15 M NaCl, 0.5% Blocking Reagent (Perkin Elmer)) for 30 min. Primary antibodies (goat-anti-SOX17 (AF1924, RnD Systems); goat-anti-Brachyury (AF2085, RnD Systems); mouse-anti-OCT4 (sc5279, SantaCruz Biotechnology); goat-anti-PDX1 (AB47383, Abcam)) were added in 0.1% TritonX-100+PBS for 1 h in RT or 4° C. O/N. After a thorough washing step in PBS, secondary antibodies were added together with DAPI in 0.1% Triton X-100+PBS for 45 min at RT, washed thoroughly in PBS and left in PBS until photodocumentation.
smiles,measurement,setting,value
"Cc1c[nH]c(-c2cnc(NCCNc3ccc(C#N)cn3)nc2-c2ccc(Cl)cc2Cl)n1 [CHIR, CHIR99021]",Oct4+ cell quantification,"D3, Exp ME16b",6.97
same,Sox17+ cell quantification,"D3, Exp ME16b",62.62
same,Oct4+ cell quantification,"D3, Exp ME18b",2.53
same,Sox17+ cell quantification,"D3, Exp ME18b",82.87
same,Oct4+ cell quantification,"D3, Exp ME21a",0.95
same,Sox17+ cell quantification,"D3, Exp ME21a",91.36
same,Oct4+ cell quantification,"D3, Mean of three experiments",3.5
same,Sox17+ cell quantification,"D3, Mean of three experiments",79.0
